Results from the NIST ThermoML archive (doi:10.1016/j.jct.2017.11.003).

Assay: xn = mol fraction of the nth substance listed
Conditions: 100 kPa, Liquid; for speed of sound: Frequency=2 MHz, Linear variable-path acoustic interferometer; for mass density: Vibrating tube method

Cc1ccccc1Cl [2-chlorotoluene] + CCCCCCCCCO
Conditions | mass density, 293.15 K [kg/m3] | mass density, 298.15 K [kg/m3] | mass density, 303.15 K [kg/m3] | mass density, 308.15 K [kg/m3] | speed of sound, 293.15 K [m/s] | speed of sound, 298.15 K [m/s] | speed of sound, 303.15 K [m/s] | speed of sound, 308.15 K [m/s]
x1 = 0.0846 | 843 | 840 | 836 | 832 | 1375.9 | 1360.1 | 1348.7 | 1325.2
x1 = 0.1974 | 864 | 861 | 857 | 853 | 1367.7 | 1351.5 | 1339.2 | 1315.5
x1 = 0.2911 | 883 | 880 | 876 | 872 | 1359.7 | 1342.9 | 1329.6 | 1305.8
x1 = 0.3964 | 906 | 902 | 898 | 894 | 1349.9 | 1331.9 | 1318.6 | 1294
x1 = 0.4896 | 928 | 924 | 920 | 915 | 1341.3 | 1322.3 | 1308.2 | 1284
x1 = 0.5943 | 954 | 950 | 946 | 941 | 1331.5 | 1312.2 | 1298 | 1273.4
x1 = 0.6918 | 981 | 976 | 972 | 967 | 1324 | 1304.4 | 1290 | 1265.8
x1 = 0.7948 | 1011 | 1007 | 1002 | 997 | 1318 | 1298.5 | 1284 | 1260.8
x1 = 0.898 | 1045 | 1040 | 1036 | 1031 | 1315.2 | 1297 | 1280.7 | 1259.9
x1 = 1 | 1082 | 1077 | 1073 | 1068 | 1317 | 1299.7 | 1283.9 | 1265.8

CCCCCCCCCO [nonan-1-ol] + ClCCCl
Conditions | mass density, 293.15 K [kg/m3] | mass density, 298.15 K [kg/m3] | mass density, 303.15 K [kg/m3] | mass density, 308.15 K [kg/m3] | speed of sound, 293.15 K [m/s] | speed of sound, 298.15 K [m/s] | speed of sound, 303.15 K [m/s] | speed of sound, 308.15 K [m/s]
x2 = 0 | 828 | 824 | 821 | 818 | 1380.5 | 1364.7 | 1348.1 | 1330.5
x2 = 0.0922 | 845 | 841 | 838 | 834 | 1357.5 | 1341.4 | 1329.7 | 1305.2
x2 = 0.2067 | 869 | 866 | 862 | 858 | 1332.2 | 1315.5 | 1301.2 | 1277.5
x2 = 0.2984 | 892 | 888 | 884 | 880 | 1313.7 | 1296.8 | 1280.6 | 1257.8
x2 = 0.406 | 922 | 918 | 914 | 909 | 1293.1 | 1275.5 | 1258 | 1235
x2 = 0.4896 | 950 | 946 | 941 | 936 | 1277.3 | 1260.3 | 1242.2 | 1219
x2 = 0.6039 | 994 | 989 | 984 | 979 | 1258.2 | 1240.6 | 1221.4 | 1199
x2 = 0.6928 | 1035 | 1030 | 1025 | 1019 | 1243.5 | 1226.4 | 1206.5 | 1184.8
x2 = 0.8087 | 1101 | 1095 | 1089 | 1083 | 1227.5 | 1210.5 | 1190 | 1169
x2 = 0.9063 | 1170 | 1163 | 1157 | 1150 | 1216.7 | 1199 | 1179.2 | 1159.9
